Measured values taken from US20250170224A1, “METHODS AND COMPOSITIONS FOR TREATING MICROGLIAL DYSFUNCTION AND IMPROVING METABOLIC DYSFUNCTION” (Ultimate Medicine AG, priority 2021, published 2025).

Assays:
[1] = In vivo intestinal permeability to CML (CML translocated into the circulation after oral gavage, LC-MS); set-up: species or system mouse; conditions: young-adult and aged mice, SPF or GF, 4 hours post gavage
Description: Specific pathogen-free (SPF) and germ-free (GF) housed C57BL/6 mice were analyzed at 6-10 weeks of age (young-adult) and 96-104 weeks of age (aged). Mice of the aged group in the nontargeted metabolomics analysis were 17-18 months old. Except for nontargeted metabolomics and microbiota profiling, where only male mice were used, all groups included mice from both sexes. Mice were housed under a 12-hour light/12-hour dark cycle and temperatures of 18-23° C. with 40-60% humidity, with food and water given ad libitum. To avoid cage effects, mice from at least three different cages per experimental group were analyzed. […] Blood was collected retro-orbitally after 4 hours and fluorescence intensity was measured on fluorescence plates using an excitation wavelength of 493 nm and an emission wavelength of 518 nm. […] CML translocated into the circulation was measured by liquid chromatography-mass spectrometry (LC-MS). […]
Samples were extracted with precooled (−80° C.) extraction solution (80:20 methanol LC-MS grade: Milli-Q H2O). Targeted metabolite quantification by LC-MS was carried out using an Agilent 1290 Infinity II UHPLC system in line with an Agilent 6495 QQQ-MS operating in multiple reaction monitoring (MRM) mode. […] Peak areas were identified based on standards for each metabolite and calculated using MassHunter v.B.08.02 (Agilent). […]

[2] = tested on: bone marrow-derived macrophages (BMDMs); assay: Bone marrow derived macrophages incubated with increasing concentrations of CML for 48 hours; format: cell-based, murine; conditions: in vitro, increasing concentrations of CML (0.1 pM, 1 pM, 10 pM, 100 pM, 1 mM)
Description: Cells were cultured at 37° C. and 5% CO2 in a humidified incubator. Murine BMDMs were differentiated from tibial and femoral bone marrow aspirates. Recombinant murine macrophage colony-stimulating factor (Immunotools) was used at 20 ng ml^−1. After 7 days of differentiation, BMDMs were seeded in 24-well plates with 5×10^5 cells per well in triplicates. The medium was switched to serum-free medium 6 hours before the experiment. Cells were incubated with increasing concentrations of CML (untreated, 0.1 pM, 1 pM, 10 pM, 100 pM, 1 mM) for 48 hours, then collected for measurements.
Cell sorting for RT-qPCR and RNA sequencing (RNA-seq) was performed on a MoFlo Astrios (Beckman Coulter; FIG. 7a). Before surface staining, dead cells were excluded by using the Fixable Viability Dye eFluor 780 (1:1,000 dilution; Thermo Fisher Scientific) followed by incubation with Fc receptor blocking antibody CD16/CD32 (1:200 dilution, clone 2.4G2; BD Bioscience). The following antibodies were used for surface staining: anti-CD45 (1:200 dilution, clone 30-F11; Thermo Fisher Scientific); anti-CD11b (1:200 dilution, clone MI/70; Thermo Fisher Scientific). The following lineage antibodies were used (all at 1:300 dilution): anti-CD3 (clone 17A2; BioLegend); anti-CD19 (clone 6D5; BioLegend); anti-CD45R (clone RA3-6B2; BD Biosciences); Ly6C (clone AL-21; BD Biosciences); Ly6G (clone 1A8; BD Biosciences). […]

SMILES: N[C@@H](CCCCNCC(=O)O)C(=O)O [CML, N^6-carboxymethyllysine]
- translocation of CML into the circulation after oral gavage [1]: highest in aged SPF mice
- metabolic activity (mitochondrial activity) in BMDMs [2]: decreased metabolic activity
- oxidative stress (cellular ROS) in BMDMs [2]: dose-dependent increase in oxidative stress
